Measured values taken from patent publication US20040101827A1, “Methods of infection with hepatitis c virus” (priority 2000, published 2004).

Test system: HCV
Experiment: Yield of HCV (HCV RNA level) in culture supernatant of HCV cDNA-introduced IMY42-5 cells, real-time detection RT-PCR
Assay type: cell-based, hepatitis C virus
Settings: ribavirin 0, 25, 50, 100, 200 μM added simultaneously with Tam, cultured for 2 days (FIG. 10)
Experimental: IMY42-5 cells were prepared by incorporating into IMY-N9 cells, pCALN/HCV RBZ and CAG-Mer-Cre-Mer (Nucleic Acids Res., 1996, 24(4), 543-548) that expresses active Cre recombinant enzyme by adding tamoxifen co-expressed constitutively therein. When tamoxifen acts on the cells, the stuffer region of pCALN/HCV RBZ was looped out and HCV cDNA was expressed.
IMY42-5 cells (2.5×10^5/ml) were inoculated, 100 μl/well in a 96-well plate, and then cultured overnight at 37° C. under 5% CO2 atmosphere. Then 4-hydroxi-tamoxifen (Tam) was added at a concentration of 100 nM. On the next day and 3 days after the addition of Tam, the culture supernatant was collected. RNA in the culture supernatant was extracted using ISOGEN-LS (Wako Pure Chemical Industries, Ltd.), and then HCV RNA levels were quantified by the Real-time detection RT-PCR (Takeuchi T. et al; Gastroenterology 1999; 116: 636-642) method.
CsA (100, 10, 1 and 0 nM) was added simultaneously with the addition of Tam to IMY42-5 cells. The cells were cultured for 3 days, and then HCV RNA levels in the culture supernatant was measured by Real-time detection RT-PCR.
Ribavirin (0, 25, 50, 100, 200 μM) was added simultaneously with the addition of Tam to IMY42-5 cells. The cells were cultured for 2 days, and then HCV RNA levels in the culture supernatant were measured.

NC(=O)c1ncn([C@@H]2O[C@H](CO)[C@@H](O)[C@H]2O)n1 [Ribavirin, ribavirin]
HCV RNA levels in the culture supernatant (yield of virus): no decrease
